Columns and labels:
HeLa cell IDO1 = HeLa cell IDO1 (Homo sapiens (Human), UniProt P14902); test: HeLa cell based IDO1 inhibition assay (kynurenine readout, IFN-γ induced); conditions: HeLa cells
Method: HeLa cell line was purchased from ATCC, cultured in MEM/EBSS medium supplemented with 10% FBS, penn-step (100,000 U/L), non-essential amino acid (0.1 Mm), sodium pyruvate (1.0 Mm). Cells were cultured at 37° C., 95% humidity and 5% CO2. […] The detailed experimental method is as follow:
25,000 HeLa cells were placed on 96-well plates. Each well contained 100 μl culture medium, subsequently IFN-γ and test compounds at specific concentrations (concentration range between 10 μM and 1 Nm, so that the final volume of culture medium was 200 μL) were added and IFN-γ was used to induce IDO1 expression. After incubation, 140 μL supernatant was transferred to 96-well plates. After adding 6.1 N TCA (10 μL), the plates were continuously incubated at 50° C. for 30 min, to hydrolyze N-formylkynurenine produced by IDO to kynurenine. The reaction solution was then centrifuged at 2500 rpm for 10 min to remove precipitate. 100 μL/well supernatant was then transferred to another 96-well plate. 100 μL of 2% (w/v) 4-N,N-dimethyl aminobenzaldehyde acetic acid solution was added and incubated at room temperature for 10 min. The yellow color derived from kynurenine was recorded by measuring absorbance at 480 nm using a microplate reader (TECAN Infinite M1000 Pro).

Human recombinant IDO1 = Human recombinant IDO1 (Homo sapiens (Human), UniProt P14902); test: IDO1 enzymatic assay (UV absorption at 321 nm); assay type: biochemical; conditions: human recombinant IDO1, 80 min incubation, room temperature; read-out: hIDO1 IC50
Method: The detailed experimental method is as follow:
The compounds described in this disclosure were dissolved in 10% DMSO to predefined concentration. All of the reactions were conducted at room temperature in this disclosure. Human recombinant IDO1 (BPS Bioscience) was added so that its concentration was 200 nm in the reaction buffer solution (200 μL). […] 10 μL test compound solution was added into the above reaction solution (200 μL), so that the final concentration of DMSO in all reaction wells was 0.5%. % concentration was volume %. After 80 min incubation of the reaction solution, the UV absorbance was measured using TECAN Infinite M1000 plate reader. For the negative control (blank), 10 μl of the assay buffer was added instead of the IDO1
All reagents (excluding human recombinant IDO1) were purchased from Sigma Aldrich, MO, USA.
(§1) The percent activity in the presence of each compound was calculated according to the following equation: % activity=[(A−Ab)/(At−Ab)]×100, where A=the absorption signal in the presence of the compound, Ab=the absorption signal of blank, At=the absorption signal in the absence of the compound. […] The IC50 was calculated using non-linear regression in Graph Pad Prism® 4.

HeLa cell based IDO1 = HeLa cell based IDO1 (Homo sapiens (Human), UniProt P14902); test: Three-point IDO1 cellular assay (HeLa, 10, 100 and 1000 nM); conditions: HeLa cells, 100 ng/mL IFN-γ, 18 hours; for inhibition values of %: at 1000 nM
Method: To perform the 3-point HeLa cell based IDO1 assay, HeLa cells were seeded at 25,000 cells per well into 96-well microplate in 100 μL of growth medium. Cells were incubated at 37° C. and 5% CO2 overnight. The next day 100 μL per well of diluted inhibitor in growth medium at 10, 100 and 1000 nM, respectively, was added at a final concentration of 100 ng/ML human IFN-γ. Cells were incubated at 37° C. in a CO2 incubator for 18 hours. […] The plate was incubated at 50° C. for 30 min to hydrolyze N-formylkynurenine produced by IDO1 to kynurenine. The plate was then centrifuged at 2500 rpm for 10 min to remove sediments. 100 μl of supernatant per well was transferred to another 96-well plate and mixed with 100 μL of 2% (w/v) 4-(Dimethylamino) benzaldehyde in acetic acid. The plate was incubated at room temperature for 10 minutes, the yellow color derived from kynurenine was recorded by measuring absorbance at 480 nm using a microplate reader (TECAN Infinite M1000 Pro). Cell based assays were performed in triplicate at each concentration. The absorbance data were analyzed using the computer software, Graphpad Prism. In the absence of the compound and presence of 100 ng/ML IFN-γ, the absorbance (At) in each data set was defined as 100%. The absorbance of medium blank (Ab) in each data set was defined as 0%. The percent absorbance in the presence of each compound was calculated according to the following equation: % Absorbance=(A−Ab)/(At−Ab), where A=the absorbance in the presence of the compound and IFN-γ, Ab=the absorbance of medium blank, and At=the absorbance in the absence of the compounds and presence of IFN-γ. The values of % absorbance versus the compound concentrations were then determined.

recombinant TDO2 = recombinant TDO2 (Homo sapiens (Human), UniProt P48775); test: TDO2 enzymatic assay (UV absorption at 321 nm); assay type: biochemical; conditions: 50 nM TDO2, 200 μM tryptophan, 75 min
Method: The TDO2 enzymatic assay was performed by UV absorption using a recombinant TDO2 and L-Tryptophan substrate. The UV absorption signal at 321 nm is correlated with the amount of N-formylkynurenine reaction product of TDO2. The compounds were diluted in 10% DMSO and 5 μL of the dilution was added to a 100 μL reaction so that the final concentration of DMSO is 0.5% in all of reactions. All of the reactions were conducted at room temperature. The 100 μL reaction mixture in TDO2 Assay Buffer contains 50 nM TDO2, the indicated amount of the inhibitor, 200 μM tryptophan, and the coupled reaction components. The reaction mixture incubated for 75 min prior to reading the UV absorption signal. For the negative control (blank), 5 μl of the assay buffer was added instead of the TDO2.
as §1, with “Absorption signals were measured using a Tecan Infinite M1000 plate reader. Binding experiments were performed in duplicate at each concentration. The percent” for “The percent”

Sequence of HeLa cell IDO1 (P14902 whole entry): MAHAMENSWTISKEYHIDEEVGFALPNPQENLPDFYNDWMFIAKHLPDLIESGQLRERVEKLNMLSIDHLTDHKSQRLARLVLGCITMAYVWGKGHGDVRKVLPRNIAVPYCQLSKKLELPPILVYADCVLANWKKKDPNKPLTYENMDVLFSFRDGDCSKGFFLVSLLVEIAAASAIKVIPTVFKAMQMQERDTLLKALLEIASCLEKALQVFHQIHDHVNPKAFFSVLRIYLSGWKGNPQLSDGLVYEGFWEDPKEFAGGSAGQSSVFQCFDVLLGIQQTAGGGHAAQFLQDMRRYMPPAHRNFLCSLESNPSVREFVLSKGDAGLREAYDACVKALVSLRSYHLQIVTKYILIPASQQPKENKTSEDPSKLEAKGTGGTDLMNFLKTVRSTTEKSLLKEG
Sequence of Human recombinant IDO1 (P14902 whole entry): as above
Sequence of HeLa cell based IDO1 (P14902 whole entry): as above
Sequence of recombinant TDO2 (P48775 whole entry, species assumed): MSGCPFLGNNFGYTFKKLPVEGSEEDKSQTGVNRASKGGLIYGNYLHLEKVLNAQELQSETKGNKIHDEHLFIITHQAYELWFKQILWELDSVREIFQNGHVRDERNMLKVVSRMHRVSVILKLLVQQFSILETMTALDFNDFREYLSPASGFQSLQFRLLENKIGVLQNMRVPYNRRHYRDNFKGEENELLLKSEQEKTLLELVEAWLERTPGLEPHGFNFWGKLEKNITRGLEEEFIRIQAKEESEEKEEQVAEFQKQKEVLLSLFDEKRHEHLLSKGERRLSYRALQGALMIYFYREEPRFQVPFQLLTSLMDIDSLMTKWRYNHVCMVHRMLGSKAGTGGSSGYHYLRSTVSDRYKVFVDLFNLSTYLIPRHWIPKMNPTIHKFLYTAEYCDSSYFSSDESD

Row | IC50 (HeLa cell IDO1) [nM] | IC50 (Human recombinant IDO1) [nM] | inhibition at 0.1 µM (HeLa cell based IDO1; at 100 nM) [%] | IC50 (recombinant TDO2) [nM] | inhibition values of % (HeLa cell based IDO1) | Compound
1 | < 100 | < 100 | – | – | – | O=C(NC1C2CC3CC1CC(C(O)CC1c4ccccc4-c4cncn41)(C3)C2)c1ccccc1 (single isomer, unassigned) [Compound 52A]
2 | < 100 | 100 to 500 | – | – | – | O=C(NC1C2CC3CC1CC(C(O)CC1c4ccccc4-c4cncn41)(C3)C2)c1ccccc1 (single isomer, unassigned) [Compound 52B]
3 | – | < 100 | > 50 | – | – | O=C(Cc1ccccc1)NC1C2CC3CC1CC(C(O)CC1c4ccccc4-c4cncn41)(C3)C2 (single isomer, unassigned) [Compound 53A]
4 | < 100 | < 100 | – | – | – | OC1C2CC3CC1CC([C@H](O)CC1c4c(F)cccc4-c4cncn41)(C3)C2 (stereo partly shown) [Compound 23A]
5 | – | 100 to 500 | – | – | greater than 50% | OC1C2CC3CC1CC([C@@H](O)CC1c4c(F)cccc4-c4cncn41)(C3)C2 (stereo partly shown) [Compound 23B]
6 | < 100 | < 100 | – | – | – | OC1C2CC3CC1CC([C@H](O)CC1c4c(F)cccc4-c4cncn41)(C3)C2 (stereo partly shown) [Compound 26A]
7 | < 100 | < 100 | – | – | – | O=S(=O)(Cc1ccccc1)NC1C2CC3CC1CC(C(O)CC1c4c(F)cccc4-c4cncn41)(C3)C2 (stereo not shown) [Compound 45A]
8 | < 100 | < 100 | – | – | – | OCCOC1C2CC3CC1CC(C(O)CC1c4c(F)cccc4-c4cncn41)(C3)C2 (stereo not shown) [Compound 61A]
9 | – | < 100 | – | – | greater than 50% | OC(CC1c2ccccc2-c2cncn21)C12CC3CC(C1)C(c1ccccc1)C(C3)C2 (stereo not shown) [Compound 62A]

The remaining lines, values behind:

Row | Compound | IC50 (HeLa cell IDO1) [nM] | IC50 (Human recombinant IDO1) [nM] | inhibition at 0.1 µM (HeLa cell based IDO1; at 100 nM) [%] | IC50 (recombinant TDO2) [nM] | inhibition values of % (HeLa cell based IDO1)
10 | O=C(C[C@H]1c2ccccc2-c2cncn21)C12CC3CC(CC(C3)C1)C2 (single isomer, unassigned) [Compound 1-2] | 100 to 500 | < 100 | – | – | –
11 | O=C(C[C@@H]1c2ccccc2-c2cncn21)C12CC3CC(CC(C3)C1)C2 (single isomer, unassigned) [Compound 1-3] | < 100 | < 100 | – | – | –
12 | OC(CC1c2ccccc2-c2cncn21)C12CC3CC(CC(C3)C1)C2 (stereo not shown) [Compound 1] | 100 to 500 | < 100 | – | – | –
13 | OC(CC1c2ccccc2-c2cncn21)C12CC3CC(CC(O)(C3)C1)C2 (stereo not shown) [Compound 9] | 100 to 500 | < 100 | – | – | –
14 | OC1C2CC3CC1CC(C(O)CC1c4ccccc4-c4cncn41)(C3)C2 (stereo not shown) [Compound 10A] | < 100 | < 100 | – | – | –
15 | CC1(O)C2CC3CC1CC(C(O)CC1c4ccccc4-c4cncn41)(C3)C2 (stereo not shown) [Compound 11A-2] | – | < 100 | – | < 500 | –
16 | OC(CC1c2ccccc2-c2cncn21)C12CC3CC(CC(C3)C1)C2 (stereo not shown) [Compound 13] | 100 to 500 | < 100 | – | – | –
17 | CC1(O)C2CC3CC1CC([C@H](O)CC1c4ccccc4-c4cncn41)(C3)C2 (stereo partly shown) [Compound 14A-4] | < 100 | < 100 | – | – | –
18 | OC1C2CC3CC1CC(C(O)CC1c4ccccc4-c4cncn41)(C3)C2 (stereo not shown) [Compound 14A] | < 100 | < 100 | – | – | –
19 | OC(CC1c2c(F)cccc2-c2cncn21)C12CC3CC(CC(C3)C1)C2 (stereo not shown) [Compound 21] | < 100 | < 100 | – | – | –
20 | OC(CC1c2c(F)cccc2-c2cncn21)C12CC3CC(CC(O)(C3)C1)C2 (stereo not shown) [Compound 22] | 100 to 500 | < 100 | – | – | –
21 | OC1C2CC3CC1CC([C@H](O)CC1c4c(F)cccc4-c4cncn41)(C3)C2 (stereo partly shown) [Compound 23A-1] | 100 to 500 | < 100 | – | – | –
22 | OC(CC1c2c(F)cccc2-c2cncn21)C12CC3CC(CC(C3)C1)C2 (stereo not shown) [Compound 25] | 100 to 500 | < 100 | – | – | –
23 | OC1C2CC3CC1CC([C@H](O)CC1c4c(F)cccc4-c4cncn41)(C3)C2 (stereo partly shown) [Compound 26A-3] | < 100 | < 100 | – | < 500 | –
24 | O=S(=O)(Cc1ccccc1)NC1C2CC3CC1CC([C@H](O)CC1c4c(F)cccc4-c4cncn41)(C3)C2 (stereo partly shown) [Compound 45A-1] | < 100 | < 100 | – | < 500 | –
25 | O=S(=O)(Cc1ccccc1)NC1C2CC3CC1CC([C@@H](O)CC1c4c(F)cccc4-c4cncn41)(C3)C2 (stereo partly shown) [Compound 45A-4] | 100 to 500 | 100 to 500 | – | 1000 to 10000 | –
26 | CS(=O)(=O)NC1C2CC3CC1CC(C(O)CC1c4c(F)cccc4-c4cncn41)(C3)C2 (stereo not shown) [Compound 46] | < 100 | < 100 | – | – | –
27 | O=C(CC1CCCCC1)NC1C2CC3CC1CC(C(O)CC1c4c(F)cccc4-c4cncn41)(C3)C2 (stereo not shown) [Compound 49] | < 100 | < 100 | – | – | –
28 | O=C(Nc1ccccc1)NC1C2CC3CC1CC(C(O)CC1c4c(F)cccc4-c4cncn41)(C3)C2 (stereo not shown) [Compound 55] | < 100 | < 100 | – | – | –
29 | CC(C)(O)CCOC1C2CC3CC1CC(C(O)CC1c4c(F)cccc4-c4cncn41)(C3)C2 (stereo not shown) [Compound 58] | < 100 | 100 to 500 | – | – | –
30 | Nc1nonc1C(=NO)Nc1ccc(F)c(Cl)c1 [Ref. B, 4-amino-N-(3-chloro-4-fluorophenyl)-N′-hydroxy-1,2,5-oxadiazole-3-carboximidamide, reference compound] | – | – | – | 10000 to 100000 | –
31 | OC(CC1c2ncccc2-c2cncn21)C1CCCCC1 (stereo not shown) [compound 3] | – | 100 to 500 | – | – | –
32 | OC(CC1c2ncccc2-c2cncn21)C12CC3CC(CC(C3)C1)C2 (stereo not shown) [compound 4] | 500 to 1000 | 100 to 500 | – | – | –
33 | OC(CC1c2cc(F)ccc2-c2cncn21)C12CC3CC(CC(C3)C1)C2 (stereo not shown) [compound 7] | – | 100 to 500 | – | – | –
34 | OC(CC1c2cccc(F)c2-c2cncn21)C12CC3CC(CC(C3)C1)C2 (stereo not shown) [compound 8] | – | 100 to 500 | – | – | –

— patent US10202388B2, “Fused-ring compounds, pharmaceutical composition and uses thereof” (SHANGHAI DE NOVO PHARMATECH CO., LTD., priority 2015, dated 2019)
